Experimental data: patent publication US7759345B2, “Antitumoral derivatives of ET-743” (priority 2001, dated 2010)
Like-named read-outs stand apart in the source and are kept apart here.

Columns and labels:
P-388 = test: Inhibition of cell growth by counting cells, P-388; format: cell-based, mouse; details: Mus musculus, P388, 72 h; three days of incubation; read-out: IC50 (molar) P-388
Protocol: (§1) 1°.—Inhibition of Cell Growth by Counting Cells.
(§2) This form of the assay employs 24 well multidishes of 16 mm diameter (Bergeron, 1984; Schroeder, 1981). The tumor cell lines employed are: P-388 (ATCC CCL 46), suspension culture of a lymphoid neoplasm from a DBA/2 mouse; A-549 (ATCC CCL 185), monolayer culture of a human lung carcinoma; HT-29 (ATCC HTB-38), monolayer culture of a human colon carcinoma; MEL-28 (ATCC HTB-72), monolayer culture of a human melanoma and DU-145 (ATCC HTB-81), monolayer culture of a human prostate carcinoma.
(§3) Cells were maintained, in logarithmic phase of growth in Eagle's Minimum Essential Medium, with Earle's Balanced Salts, with non-essential amino acids, with 2.0 mM L-Glutamine, without sodium bicarbonate (EMEM/neaa), supplemented with 10% Fetal Calf Serum (FCS), 10^−2 M. sodium bicarbonate and 0.1 U/l penicillin G+0.1 g/l streptomycin sulfate. For the experiments, cells are harvested from subconfluent cultures using trypsin and resuspended in fresh medium before plating.
(§4) P-388 cells were seeded into 16 mm diameter wells at 1×10^4 cells per well in 1 ml aliquots of EMEM 5% FCS containing different concentrations of the sample to be tested. A separate set of cultures without drug was seeded as control of growth, to ensure that cells remained in exponential phase of growth. All determinations are carrying out in duplicate.
(§5) For quantifying the activity, after the incubation time, cells are trypsinized and counted in a Coulter Counter ZM. All counts (net cells per well), represent the average of duplicate wells. % G, percent of growth relative to cultures without drug. The results of these assays are used to generate dose-response curves from which more precise IC50 values are determined (sample concentration which produces 50% cell growth inhibition).
(§6) Obtained results may predict the usefulness of a certain drug as a potential cancer treatment. For this technique, compounds which show IC50 values smaller than 1 μg/ml are selected to continue with further studies. IC50's data allow to predict that not only could a drug be cystostatic, but also it could have a potential in terms of tumor reduction.

A-549 = test: Inhibition of cell growth by counting cells, A-549; format: cell-based, human; details: three days of incubation, read-out: IC50 (molar) A-549
Protocol: as §1, §2, §3
as §4, with “A-549, HT-29, MEL-28 and DU-145” for “P-388”, “duplicate. After three days of incubation at 37° C., 5% CO2 in a 98% humid atmosphere cells were stained with 0.1% crystal violet. An approximately IC50 was determined by comparing the growth in wells with drug to the growth in wells control.” for “duplicate.”
as §5, §6

HT-29 = test: Inhibition of cell growth by counting cells, HT-29; format: cell-based, human; details: three days of incubation, read-out: IC50 (molar) HT-29
Protocol: as §1, §2, §3
as §4, with “A-549, HT-29, MEL-28 and DU-145” for “P-388”, “duplicate. After three days of incubation at 37° C., 5% CO2 in a 98% humid atmosphere cells were stained with 0.1% crystal violet. An approximately IC50 was determined by comparing the growth in wells with drug to the growth in wells control.” for “duplicate.”
as §5, §6

MEL-28 = test: Inhibition of cell growth by counting cells, MEL-28; format: cell-based, human; details: Homo sapiens, SK-MEL-28, 72 h; three days of incubation; read-out: IC50 (molar) MEL-28
Protocol: as §1, §2, §3
as §4, with “A-549, HT-29, MEL-28 and DU-145” for “P-388”, “duplicate. After three days of incubation at 37° C., 5% CO2 in a 98% humid atmosphere cells were stained with 0.1% crystal violet. An approximately IC50 was determined by comparing the growth in wells with drug to the growth in wells control.” for “duplicate.”
as §5, §6

SMILES	IC50 (P-388) [nM]	IC50 (A-549; Homo sapiens, A549, 72 h) [nM]	IC50 (HT-29; Homo sapiens, HT-29, 72 h) [nM]	IC50 (MEL-28) [nM]	IC50 (A-549) [nM]	IC50 (HT-29) [nM]
COc1cc2c(cc1OC(C)=O)CCN[C@]21CS[C@@H]2c3c(OC(C)=O)c(C)c4c(c3[C@H](COC1=O)N1C2[C@H]2c3c(cc(C)c(OC)c3OC(C)=O)C[C@@H]([C@@H]1O)N2C)OCO4 (stereo partly shown) [Compound 80]	2.96	5.92	5.92	5.92	–	–
COc1cc2c(cc1O)CCN(C)[C@]21CS[C@@H]2c3c(OC(C)=O)c(C)c4c(c3[C@H](COC1=O)N1C[C@@H]3Cc5cc(C)c(OC)c(O)c5[C@H](C21)N3C)OCO4 (stereo partly shown) [Compound 185]	13.2	13.2	13.2	13.2	–	–
C=CCOc1c(OC)c(C)cc2c1[C@H]1N[C@@H](C2)[C@H](C#N)N2C1[C@@H]1SC[C@]3(NCCc4cc(O)c(OC)cc43)C(=O)OC[C@H]2c2c3c(c(C)c(OC(C)=O)c21)OCO3 (stereo partly shown) [Compound 201]	12.6	15.7	15.7	15.7	–	–
C=CCOC(=O)Oc1cc2c(cc1OC)[C@@]1(CS[C@@H]3c4c(OC(C)=O)c(C)c5c(c4[C@H](COC1=O)N1C3[C@H]3c4c(cc(C)c(OC)c4O)C[C@@H]([C@@H]1C#N)N3C(=O)OCC=C)OCO5)NCC2 (stereo partly shown) [Compound 187]	1.08	1.08	1.08	1.08	–	–
COc1cc2c(cc1OC(C)=O)CCN[C@]21CS[C@@H]2c3c(OC(C)=O)c(C)c4c(c3[C@H](COC1=O)N1C2[C@H]2c3c(cc(C)c(OC)c3OC(C)=O)C[C@@H]([C@@H]1C#N)N2C)OCO4 (stereo partly shown) [Compound 6]	1.41	2.93	2.93	2.93	–	–
COc1cc2c(cc1OC(=O)OC(C)(C)C)CCN[C@]21CS[C@@H]2c3c(OC(C)=O)c(C)c4c(c3[C@H](COC1=O)N1C2[C@H]2c3c(cc(C)c(OC)c3O)C[C@@H]([C@@H]1C#N)N2C(=O)OC(C)(C)C)OCO4 (stereo partly shown) [Compound 190]	5.22	5.22	5.22	5.22	–	–
CCCC(=O)Oc1c(C)c2c(c3c1[C@H]1SC[C@]4(NCCc5cc(O)c(OC)cc54)C(=O)OC[C@@H]3N3C1[C@H]1c4c(cc(C)c(OC)c4OC(=O)CCC)C[C@@H]([C@@H]3C#N)N1C)OCO2 (stereo partly shown) [Compound 140]	–	1.15	1.15	–	–	–
C=CCOC(=O)Oc1c(C)c2c(c3c1[C@H]1SC[C@]4(NCCc5cc(O)c(OC)cc54)C(=O)OC[C@@H]3N3C1[C@H]1c4c(cc(C)c(OC)c4O)C[C@@H]([C@@H]3C#N)N1C)OCO2 (stereo partly shown) [Compound 141]	–	–	–	–	0.123	0.123
CCOc1c(C)c2c(c3c1[C@H]1SC[C@]4(NCCc5cc(OC(=O)OC(C)(C)C)c(OC)cc54)C(=O)OC[C@@H]3N3C1[C@H]1c4c(cc(C)c(OC)c4OCC)C[C@@H]([C@@H]3C#N)N1C)OCO2 (stereo partly shown) [Compound 129]	–	11.3	11.3	–	–	–
COc1cc2c(cc1OC(=O)OC(C)(C)C)CCN[C@]21CS[C@@H]2c3c(OC(=O)CCCl)c(C)c4c(c3[C@H](COC1=O)N1C2[C@H]2c3c(cc(C)c(OC)c3O)C[C@@H]([C@@H]1C#N)N2C)OCO4 (stereo partly shown) [Compound 116]	–	0.109	0.109	–	–	–
COc1cc2c(cc1OC(=O)OC(C)(C)C)CCN[C@]21CS[C@@H]2c3c(OC(=O)OC(C)(C)C)c(C)c4c(c3[C@H](COC1=O)N1C2[C@H]2c3c(cc(C)c(OC)c3O)C[C@@H]([C@@H]1C#N)N2C)OCO4 (stereo partly shown) [Compound 108]	–	0.108	0.108	–	–	–
COc1cc2c(cc1OC(=O)OC(C)(C)C)CCN[C@]21CS[C@@H]2c3c(OC)c(C)c4c(c3[C@H](COC1=O)N1C2[C@H]2c3c(cc(C)c(OC)c3O)C[C@@H]([C@@H]1C#N)N2C)OCO4 (stereo partly shown) [Compound 126]	–	–	–	–	0.119	0.119
CCCCCCCC(=O)Oc1cc2c(cc1OC)[C@@]1(CS[C@@H]3c4c(OC(C)=O)c(C)c5c(c4[C@H](COC1=O)N1C3[C@H]3c4c(cc(C)c(OC)c4OC(=O)CCCCCCC)C[C@@H]([C@@H]1O)N3C)OCO5)NCC2 (stereo partly shown) [Compound 82]	–	98.6	98.6	–	–	–
CCOc1c(C)c2c(c3c1[C@H]1SC[C@]4(NCCc5cc(O)c(OC)cc54)C(=O)OC[C@@H]3N3C1[C@H]1c4c(cc(C)c(OC)c4OCC)C[C@@H]([C@@H]3C#N)N1C)OCO2 (stereo partly shown) [Compound 152]	–	12.8	12.8	–	–	–
COc1cc2c(cc1OC(=O)CCCl)CCN[C@]21CS[C@@H]2c3c(OC(C)=O)c(C)c4c(c3[C@H](COC1=O)N1C2[C@H]2c3c(cc(C)c(OC)c3O)C[C@@H]([C@@H]1C#N)N2C)OCO4 (stereo partly shown) [Compound 12]	–	0.116	0.116	–	–	–
COc1cc2c(cc1O)CCN[C@]21CS[C@@H]2c3c(OC(=O)C(F)(F)F)c(C)c4c(c3[C@H](COC1=O)N1C2[C@H]2c3c(cc(C)c(OC)c3OC(=O)C(F)(F)F)C[C@@H]([C@@H]1C#N)N2C)OCO4 (stereo partly shown) [Compound 160]	–	1.09	1.09	–	–	–
CCCOc1c(C)c2c(c3c1[C@H]1SC[C@]4(NCCc5cc(OC(=O)OC(C)(C)C)c(OC)cc54)C(=O)OC[C@@H]3N3C1[C@H]1c4c(cc(C)c(OC)c4O)C[C@@H]([C@@H]3C#N)N1C)OCO2 (stereo partly shown) [Compound 130]	–	1.15	1.15	–	–	–
CCCCCCCC(=O)Oc1c(C)c2c(c3c1[C@H]1SC[C@]4(NCCc5cc(O)c(OC)cc54)C(=O)OC[C@@H]3N3C1[C@H]1c4c(cc(C)c(OC)c4OC(=O)CCCCCCC)C[C@@H]([C@@H]3C#N)N1C)OCO2 (stereo partly shown) [Compound 145]	–	102	102	–	–	–
CCCC(=O)Oc1c(C)c2c(c3c1[C@H]1SC[C@]4(NCCc5cc(O)c(OC)cc54)C(=O)OC[C@@H]3N3C1[C@H]1c4c(cc(C)c(OC)c4OC(=O)CCC)C[C@@H]([C@@H]3O)N1C)OCO2 (stereo partly shown) [Compound 164]	–	11.6	11.6	–	–	–
CCCCCCCC(=O)Oc1cc2c(cc1OC)[C@@]1(CS[C@@H]3c4c(OC(C)=O)c(C)c5c(c4[C@H](COC1=O)N1C3[C@@H]3N[C@@H](Cc4cc(C)c(OC)c(OC(=O)CCCCCCC)c43)[C@@H]1O)OCO5)NCC2 (stereo partly shown) [Compound 214]	–	5	5	–	–	–
CCOc1c(C)c2c(c3c1[C@H]1SC[C@]4(NCCc5cc(OC(=O)OC(C)(C)C)c(OC)cc54)C(=O)OC[C@@H]3N3C1[C@H]1c4c(cc(C)c(OC)c4O)C[C@@H]([C@@H]3C#N)N1C)OCO2 (stereo partly shown) [Compound 128]	–	1.17	1.17	–	–	–
COc1cc2c(cc1O)CCN[C@]21CS[C@@H]2c3c(OC(=O)/C=C/c4ccccc4)c(C)c4c(c3[C@H](COC1=O)N1C2[C@H]2c3c(cc(C)c(OC)c3OC(=O)/C=C/c3ccccc3)C[C@@H]([C@@H]1O)N2C)OCO4 (stereo partly shown) [Compound 162]	–	5.1	5.1	–	–	–
CCCOc1c(C)c2c(c3c1[C@H]1SC[C@]4(NCCc5cc(O)c(OC)cc54)C(=O)OC[C@@H]3N3C1[C@H]1c4c(cc(C)c(OC)c4O)C[C@@H]([C@@H]3O)N1C)OCO2 (stereo partly shown) [Compound 178]	–	1.31	1.31	–	–	–
COc1cc2c(cc1OC(=O)OCc1ccccc1)CCN[C@]21CS[C@@H]2c3c(OC(C)=O)c(C)c4c(c3[C@H](COC1=O)N1C2[C@H]2c3c(cc(C)c(OC)c3OC(=O)OCc3ccccc3)C[C@@H]([C@@H]1O)N2C)OCO4 (stereo partly shown) [Compound 85]	–	9.71	9.71	–	–	–
CCCOc1c(C)c2c(c3c1[C@H]1SC[C@]4(NCCc5cc(OC(=O)OC(C)(C)C)c(OC)cc54)C(=O)OC[C@@H]3N3C1[C@H]1c4c(cc(C)c(OC)c4OCCC)C[C@@H]([C@@H]3C#N)N1C)OCO2 (stereo partly shown) [Compound 131]	–	110	110	–	–	–
C=CCOc1c(C)c2c(c3c1[C@H]1SC[C@]4(NCCc5cc(OC(=O)OC(C)(C)C)c(OC)cc54)C(=O)OC[C@@H]3N3C1[C@H]1c4c(cc(C)c(OC)c4OCC=C)C[C@@H]([C@@H]3C#N)N1C)OCO2 (stereo partly shown) [Compound 133]	–	110	110	–	–	–
